According to patent US10336792B2, “Antimicrobial peptide dendrimers” (priority 2014, dated 2019):
Values after ≈ are worked out from the molar mass of the structure shown. Positions of bridges follow the written chain, without caps; N, C: chain ends. Non-standard residues stand in square brackets, D forms with d. Residues, ends and D or L forms follow the SMILES beside them. Groups on a side chain read outwards from the residue. Chains are numbered I, II in the order given. Dab = NCC[C@H](N)C(=O)O

Columns and labels:
[1] = tested on: Staphylococcus aureus (COL, MRSA reference strain); format: cell-based; details: COL, reference strain
In short: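 Broth microdilution in Müller-Hinton medium, two-fold serial dilutions from a starting 32–256 μg/mL, compounds dissolved in PBS; inoculum about 5×10^5 CFU, incubated 37° C ~18 h. MIC taken as lowest concentration with no visible growth by eye; polymyxin as reference.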

[2] = 5(6)-Carboxyfluorescein leakage from lipid vesicles; details: 10 mM TRIS, 107 mM NaCl, pH 7.4; peptide added at 50 s
Protocol: (§1) Preparation A thin lipid film was prepared by evaporating a solution of 25 mg Egg PC or Egg PG in 1 mL MeOH/CHCl3 1/1 on a rotary evaporator (rt) and then in vacuo overnight. The resulting film was hydrated with 1 mL buffer (50 mM CF, 10 mM TIRS, 10 mM NaCl, pH 7.4) for 30 min, subjected to freeze-thaw cycles (7×) and extrusion (15×) through a polycarbonate membrane (pore size 100 nm). Extravesicular components were removed by gel filtration (Sephadex G-50) with 10 mM TRIS, 107 mM NaCl, pH 7.4. Final conditions: ˜2.5 mM Egg PC or Egg PG; inside: 50 mM CF, 10 mM TIRS, 10 mM NaCl, pH 7.4; outside: 10 mM TRIS, 107 mM NaCl, pH 7.4.
(§2) Experiment Egg PC or Egg PG stock solutions (37.5 μL) were diluted with a buffer (10 mM TRIS, 107 mM NaCl, pH 7.4) and placed in a thermostated fluorescence cuvette (25° C.) and gently stirred (total volume in the cuvette ˜3000 μL; final lipid concentration ˜31.25 μM). CF efflux was monitored at λem 517 nm (λex 492 nm) as a function of time after addition of 20 μL of peptide dendrimer in buffer (10 mM TRIS, 107 mM NaCl, pH 7.4) with final concentrations of 1, 5, 7.5, 10, 15, 20, 25, 30 μg/mL at t=50 s and 1.2% trition X-100 (30 μL, 0.012% final concentration) at t=300 s. Fluorescence intensities were normalized to fractional emission intensity I(t) using I(t)=(It−I0)/(I∞−I0) where I0 It at peptide dendrimer addition, I∞=It at saturation of lysis.
Bacterial membranes contain relatively large amounts of exposed anionic lipids, while the outer leaflet of the membranes of plants and animals is composed mainly of lipids with no net charge. The charge composition of such membranes can be mimicked with phospholipid vesicles. Large unilamellar vesicles (LUVs) composed of the neutral phospholipid with PC (phosphatidyl choline) or with PG (phosphatidyl glycerol) with negative charges were prepared encapsulating 5(6)-carboxyfluorescein (CF). […] The higher the concentration of MSt-112 the higher is the CF leakage (FIG. 6A). […] Overall the active AMPDs interact with the negatively charged membrane and release the CF.

[3] = tested on: Bacillus subtilis (strain BR151); format: cell-based; details: strain BR151
In short: (§3)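 Broth microdilution MIC in LB; overnight cultures diluted to OD600 0.001 and mixed 1:1 with ⅔-serially diluted samples (stock 1 mg mL^−1 in H2O), 37° C for 18-24 h. MTT (0.1%) added; MIC read by eye as lowest concentration inhibiting visible growth (yellow).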

[4] = tested on: Escherichia coli (strain DH5α); format: cell-based; details: DH5α
In short: as §3

[5] = tested on: Pseudomonas aeruginosa (strain PA01); test: microbe, parasite or virus in culture; format: cell-based; details: strain
In short: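 P. aeruginosa PAO1 grown overnight in LB, diluted to OD600 0.001 and mixed with ⅔-step peptide dilutions, then incubated at 37 °C for 18–24 h. After MTT staining, the lowest concentration with no visible growth was read by eye as the MIC.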

B. subtilis BR151 = test: Preliminary resistant development assay (daily MIC for 15 days); format: cell-based, Bacillus subtilis; details: bacteria from 1/2 MIC well re-tested daily
Protocol: MICs of compounds for B. subtilis BR151 were determined daily for 15 days using cells from the well in which the compound concentration was one-half the MIC value (½ MIC well). […] The re-suspension was then diluted to 5×10^5 cells/ml in LB Broth (OD600=0.1 then diluted 1:100 fold to get OD600=0.001) and used to again determine the MIC of the same compound to which those cells had previously been exposed. All MIC determinations were done in duplicate.
For an initial estimation of how fast resistances could arise with AMPDs the MIC was repeated for 15 days in a row and determined each day. After obtaining the MIC value in usual broth dilution assay the bacteria (B. subtilis) from the ½ MIC well were incubated for 2-5 hours and the dilution assay was repeated. This procedure was realized for 15 days and the MICs of each day compared. In case of an increase of the MIC, it is indicative for a resistance against the AMPDs.

[6] = 5(6)-Carboxyfluorescein leakage from lipid vesicles; details: 10 mM TRIS, 107 mM NaCl, pH 7.4; peptide added at 50 s; remark: listed apart in the source
Protocol: as §1, §2

NCC[C@H](NC(=O)[C@H](CCCCNC(=O)[C@H](Cc1c[nH]c2ccccc12)NC(=O)[C@H](CCN)NC(=O)[C@H](CCCCNC(=O)[C@H](Cc1c[nH]c2ccccc12)NC(=O)[C@@H](N)CCN)NC(=O)[C@H](Cc1c[nH]c2ccccc12)NC(=O)[C@@H](N)CCN)NC(=O)[C@H](Cc1c[nH]c2ccccc12)NC(=O)[C@H](CCN)NC(=O)[C@H](CCCCNC(=O)[C@H](Cc1c[nH]c2ccccc12)NC(=O)[C@@H](N)CCN)NC(=O)[C@H](Cc1c[nH]c2ccccc12)NC(=O)[C@@H](N)CCN)C(=O)N[C@@H](Cc1c[nH]c2ccccc12)C(N)=O [MSt-176, (DabW)4(KDabW)2(KDabW)] (I: H-[Dab]WK([Trp-Dab])[Dab]WK[Dab]W-NH2 / II: H-[Dab]WK([Trp-Dab])[Dab]W; amide I:6-II:C; N-terminus assumed)
MIC S. aureus (COL, MRSA reference strain) [1]: below 20 μg/mL | CF leakage from phosphatidylglycerol LUVs [2]: immediate leakage of CF | MIC B. subtilis BR151 [3]: 1 µg/mL (≈ 0.416 µM) | MIC E. coli DH5α [4]: 3 µg/mL (≈ 1.25 µM) | MIC P. aeruginosa PAO1 [5]: 1 µg/mL (≈ 0.416 µM) | change of MIC over 15 days (resistance) (B. subtilis BR151): did not have a significant change of their MIC values over 15 days | CF leakage from phosphatidylcholine LUVs [6]: induced CF release
